The NIST ThermoML archive (doi:10.1016/j.jct.2008.02.020)
± gives the expanded uncertainty stated by the source.

Details: Liquid, Buoyancy - hydrostatic balance with magnetic suspension - one sinker

CCCCCCC [heptane]
Details	mass density [kg/m3]
233.15 K, 101.68 kPa	733.289 ± 0.2
233.15 K, 1104.1 kPa	733.918 ± 0.2
233.15 K, 2003.3 kPa	734.481 ± 0.2
233.15 K, 4006 kPa	735.714 ± 0.2
233.15 K, 6004.8 kPa	736.928 ± 0.2
233.15 K, 8009.5 kPa	738.125 ± 0.2
233.15 K, 9956.8 kPa	739.277 ± 0.2
233.15 K, 11864 kPa	740.377 ± 0.2
233.15 K, 13984 kPa	741.588 ± 0.2
233.15 K, 15995 kPa	742.722 ± 0.2
233.15 K, 17888 kPa	743.774 ± 0.2
233.15 K, 20074 kPa	744.977 ± 0.2
233.15 K, 22024 kPa	746.029 ± 0.2
233.15 K, 24018 kPa	747.094 ± 0.2
233.15 K, 25954 kPa	748.113 ± 0.2
233.15 K, 27944 kPa	749.147 ± 0.2
233.15 K, 29979 kPa	750.192 ± 0.2
253.15 K, 98.99 kPa	717.086 ± 0.19
253.15 K, 1101.5 kPa	717.807 ± 0.19
253.15 K, 2000.5 kPa	718.446 ± 0.19
253.15 K, 4006.3 kPa	719.85 ± 0.19
253.15 K, 6005.4 kPa	721.223 ± 0.19
253.15 K, 8147.8 kPa	722.669 ± 0.19
253.15 K, 10096 kPa	723.959 ± 0.19
253.15 K, 11827 kPa	725.088 ± 0.19
253.15 K, 13955 kPa	726.459 ± 0.19
253.15 K, 16060 kPa	727.785 ± 0.19
253.15 K, 18040 kPa	729.014 ± 0.19
253.15 K, 20020 kPa	730.22 ± 0.19
253.15 K, 22093 kPa	731.465 ± 0.19
253.15 K, 23828 kPa	732.495 ± 0.19
253.15 K, 25891 kPa	733.701 ± 0.2
253.15 K, 27739 kPa	734.762 ± 0.2
253.15 K, 29900 kPa	735.987 ± 0.2
273.15 K, 102.15 kPa	700.687 ± 0.18
273.15 K, 1101.3 kPa	701.507 ± 0.18
273.15 K, 2006.3 kPa	702.244 ± 0.18
273.15 K, 4005.4 kPa	703.841 ± 0.19
273.15 K, 6005.5 kPa	705.403 ± 0.19
273.15 K, 8197.5 kPa	707.077 ± 0.19
273.15 K, 10109 kPa	708.507 ± 0.19
273.15 K, 12114 kPa	709.976 ± 0.19
273.15 K, 14092 kPa	711.403 ± 0.19
273.15 K, 16116 kPa	712.831 ± 0.19
273.15 K, 18076 kPa	714.19 ± 0.19
273.15 K, 20096 kPa	715.565 ± 0.19
273.15 K, 22069 kPa	716.883 ± 0.19
273.15 K, 24102 kPa	718.226 ± 0.19
273.15 K, 25918 kPa	719.397 ± 0.19
273.15 K, 27991 kPa	720.718 ± 0.19
273.15 K, 29444 kPa	721.633 ± 0.19
293.15 K, 98.89 kPa	683.986 ± 0.18
293.15 K, 1104.3 kPa	684.937 ± 0.18
293.15 K, 2003.3 kPa	685.779 ± 0.18
293.15 K, 4003 kPa	687.611 ± 0.18
293.15 K, 6003.7 kPa	689.394 ± 0.18
293.15 K, 8007.4 kPa	691.14 ± 0.18
293.15 K, 10028 kPa	692.854 ± 0.18
293.15 K, 12139 kPa	694.603 ± 0.18
293.15 K, 14008 kPa	696.118 ± 0.18
293.15 K, 16160 kPa	697.827 ± 0.18
293.15 K, 18149 kPa	699.368 ± 0.18
293.15 K, 19992 kPa	700.756 ± 0.18
293.15 K, 22123 kPa	702.362 ± 0.18
293.15 K, 24036 kPa	703.766 ± 0.19
293.15 K, 25999 kPa	705.175 ± 0.19
293.15 K, 27983 kPa	706.576 ± 0.19
293.15 K, 29986 kPa	707.965 ± 0.19
313.15 K, 101.45 kPa	666.898 ± 0.17
313.15 K, 1102.2 kPa	667.995 ± 0.17
313.15 K, 2005.5 kPa	668.973 ± 0.17
313.15 K, 4004.5 kPa	671.086 ± 0.18
313.15 K, 6106.9 kPa	673.238 ± 0.18
313.15 K, 7941.2 kPa	675.062 ± 0.18
313.15 K, 9944.4 kPa	676.997 ± 0.18
313.15 K, 11841 kPa	678.793 ± 0.18
313.15 K, 13782 kPa	680.575 ± 0.18
313.15 K, 16032 kPa	682.588 ± 0.18
313.15 K, 17876 kPa	684.2 ± 0.18
313.15 K, 19748 kPa	685.804 ± 0.18
313.15 K, 21803 kPa	687.518 ± 0.18
313.15 K, 23829 kPa	689.172 ± 0.18
313.15 K, 25814 kPa	690.765 ± 0.18
313.15 K, 27801 kPa	692.324 ± 0.18
313.15 K, 29818 kPa	693.872 ± 0.18
333.15 K, 103 kPa	649.298 ± 0.17
333.15 K, 1106 kPa	650.588 ± 0.17
333.15 K, 2004.1 kPa	651.723 ± 0.17
333.15 K, 4003.6 kPa	654.18 ± 0.17
333.15 K, 6004.6 kPa	656.549 ± 0.17
333.15 K, 8005.6 kPa	658.837 ± 0.17
333.15 K, 9901.5 kPa	660.933 ± 0.17
333.15 K, 12083 kPa	663.274 ± 0.17
333.15 K, 14040 kPa	665.309 ± 0.17
333.15 K, 16005 kPa	667.293 ± 0.17
333.15 K, 17854 kPa	669.109 ± 0.17
333.15 K, 19985 kPa	671.149 ± 0.18
333.15 K, 21967 kPa	672.997 ± 0.18
333.15 K, 23926 kPa	674.778 ± 0.18
333.15 K, 25823 kPa	676.467 ± 0.18
333.15 K, 27823 kPa	678.205 ± 0.18
333.15 K, 30009 kPa	680.058 ± 0.18
353.15 K, 99.37 kPa	631.037 ± 0.16
353.15 K, 1182.8 kPa	632.68 ± 0.17
353.15 K, 2156.3 kPa	634.131 ± 0.17
353.15 K, 4140.7 kPa	636.982 ± 0.17
353.15 K, 6175.6 kPa	639.78 ± 0.17
353.15 K, 8138.9 kPa	642.37 ± 0.17
353.15 K, 10095 kPa	644.851 ± 0.17
353.15 K, 12083 kPa	647.284 ± 0.17
353.15 K, 14040 kPa	649.596 ± 0.17
353.15 K, 16039 kPa	651.883 ± 0.17
353.15 K, 18008 kPa	654.064 ± 0.17
353.15 K, 19996 kPa	656.201 ± 0.17
353.15 K, 21956 kPa	658.247 ± 0.17
353.15 K, 23925 kPa	660.247 ± 0.17
353.15 K, 25887 kPa	662.188 ± 0.17
353.15 K, 27855 kPa	664.084 ± 0.17
353.15 K, 29976 kPa	666.077 ± 0.17
373.15 K, 1164.3 kPa	613.877 ± 0.16
373.15 K, 2149.2 kPa	615.631 ± 0.16
373.15 K, 4123.5 kPa	618.999 ± 0.16
373.15 K, 5987 kPa	622.014 ± 0.16
373.15 K, 8094.8 kPa	625.262 ± 0.16
373.15 K, 10060 kPa	628.151 ± 0.16
373.15 K, 12066 kPa	630.972 ± 0.16
373.15 K, 14018 kPa	633.61 ± 0.17
373.15 K, 16044 kPa	636.241 ± 0.17
373.15 K, 18058 kPa	638.765 ± 0.17
373.15 K, 19976 kPa	641.085 ± 0.17
373.15 K, 21960 kPa	643.408 ± 0.17
373.15 K, 23948 kPa	645.665 ± 0.17
373.15 K, 25805 kPa	647.712 ± 0.17
373.15 K, 27898 kPa	649.952 ± 0.17
373.15 K, 29819 kPa	651.952 ± 0.17
393.15 K, 1101.9 kPa	593.952 ± 0.15
393.15 K, 2001.5 kPa	595.905 ± 0.15
393.15 K, 4002.8 kPa	600.027 ± 0.15
393.15 K, 6004.3 kPa	603.884 ± 0.16
393.15 K, 8005.5 kPa	607.511 ± 0.16
393.15 K, 10007 kPa	610.942 ± 0.16
393.15 K, 12111 kPa	614.361 ± 0.16
393.15 K, 14116 kPa	617.466 ± 0.16
393.15 K, 16097 kPa	620.399 ± 0.16
393.15 K, 18029 kPa	623.142 ± 0.16
393.15 K, 20054 kPa	625.904 ± 0.16
393.15 K, 22016 kPa	628.483 ± 0.16
393.15 K, 24006 kPa	631.008 ± 0.16
393.15 K, 25986 kPa	633.434 ± 0.17
393.15 K, 27952 kPa	635.769 ± 0.17
393.15 K, 29843 kPa	638.037 ± 0.17
